Laboratory results: patent US20010046498A1, “Chimeric prostate-homing peptides with pro-apoptotic activity” (priority 2000, published 2001)
Like-named read-outs stand apart in the source and are kept apart here. Bridge positions count the residues as written; N and C are the ends. Square brackets hold non-standard residues; d marks the D form. Peptide text beside a SMILES is read from it.

Legend:
[1] = system: dermal microvessel endothelial cells; assay: Mitochondrial morphology of proliferating DMECs (MitoTracker Red / DAPI); format: cell-based, human; details: 60 μM peptide
Experimental: Mitochondrial morphology of dermal microvessel endothelial cells was assessed in proliferating cells after treatment with 60 μM HPP-1, […]-GG-D(KLAKLAK)2 or untargeted D(KLAKLAK)2 as follows. Dermal microvessel endothelial cells were stained after 24 and 72 hours treatment with peptide by incubation for 30 min at 37° C. with 100 nM mitochondrial stain MitoTracker Red™ (Molecular Probes, Inc., Eugene Oreg.) and 500 nM of the nuclear stain DAPI (Molecular Probes, Inc.). Mitochondria were subsequently visualized using fluorescence microscopy (100×) under an inverted microscope using a triple wavelength filter set (Nikon).

[2] = system: MDA-MB-435 human breast carcinoma cells; assay: LC50 for MDA-MB-435 cells scored by apoptotic morphology; format: cell-based
Experimental: (§1) Briefly, dermal microvessel endothelial cells (DMECs) were grown in CADMEC Growth Media™ (Cell Applications, Inc.; San Diego, Calif.). Dermal microvessel endothelial cells were then cultured under three experimental conditions: proliferation, 30% confluency in a growth media supplemented with 500 ng/ml human recombinant vascular endothelial growth factor (VEGF; Pharmingen); no proliferation, 100% confluency in media formulated to maintain a monolayer; and cord formation, 60% confluency (required for induction) in media formulated to induce cord formation. The KS1767 and MDA-MB-435 cells were cultured as described in Arap et al., supra, 1998; Hernier et al., supra, 1994).
(§2) Percent viability and LC50 (Table 1) were determined by apoptotic morphology as described in Ellerby et al., J. Neurosci. 17:6165-6178 (1997). For the percent viability assays, dermal microvessel endothelial cells were treated with 60 μM HPP-1 or control peptide D(KLAKLAK)2. At the indicated time points, cell culture medium was aspirated from adherent cells, and the cells were gently washed once with PBS at 37° C. […] At least 500 cells were scored for a given time point in each experiment. Percent viability was calculated relative to untreated controls. The LC50 for monolayer, proliferation (60% confluency), and cord formation were scored at 72 hours.

[3] = system: normal human dermal microvessel endothelial cells (DMECs); assay: in vitro; format: cell-based; details: for CC50: scored at 72 hours
Experimental: (§3) The effect of HPP-1 was assayed on normal human dermal microvessel endothelial cells (DMECs) under the angiogenic conditions of proliferation and cord formation. In addition, the effect of HPP-1 was assayed under the angiostatic condition of a monolayer maintained at 100% confluency (as described below).
as §1
as §2, with “C. Subsequently, a 20-fold dilution of the dye mixture (100 μg/ml acridine orange and 100 μg/ml ethidium bromide) in PBS was gently pipetted on the cells, which were viewed on an inverted microscope (Nikon TE 300).” for “C.”

[4] = in vitro; format: cell-based; details: human; monolayer at 100% confluency; scored at 72 hours; means of three independent experiments; read-out: LC50 DMEC Angiostatic
Experimental: as §3, §1
as §2, with “C. Subsequently, a 20-fold dilution of the dye mixture (100 μg/ml acridine orange and 100 μg/ml ethidium bromide) in PBS was gently pipetted on the cells, which were viewed on an inverted microscope (Nikon TE 300).” for “C.”

[5] = system: tumors derived from the human melanoma cell line C8161; assay: Treatment of nude mice bearing C8161 melanoma xenografts; format: in vivo; details: similar experiments
Experimental: (§4) The activity of HPP-1 was tested in vivo using nude mice bearing human MDA-MD-435 breast carcinoma xenografts as follows. Briefly, MDA-MB-435 and C8161-derived tumor xenografts were established in 2 month-old female nude mice (Jackson Labs; Bar Harbor, Me.) as described in Arap et al., supra, 1998. After mice were anesthetized with a mixture of 2,2,2-tribromoethanol (Aldrich; Milwaukee, Wis.) and 2-methyl-butanol (Aldrich) prepared in distilled water, peptides were administered intravenously through the tail vein at a dose of 250 μg/week/mouse given slowly in a volume of 200 μl. Three-dimensional measurements of tumors were taken by caliper under anesthesia and used to calculate tumor volume (Pasqualini et al., supra, 1996).

[6] = system: KS1767 cells; assay: LC50 for KS1767 cells scored by apoptotic morphology; format: cell-based; details: proliferating KS1767 cells; read-out: LC50 KS1767 Prolif.
Experimental: as §1, §2

[7] = system: human MDA-MD-435 breast carcinoma xenografts; assay: Treatment of nude mice bearing breast carcinoma xenografts; format: in vivo
Experimental: as §4

[8] = system: caspase activation in dermal microvessel endothelial cells; assay: Caspase activity (DEVD-pNA hydrolysis) in DMEC lysates; format: cell-based, human; details: proliferating DMECs
Experimental: Characteristic caspase-3 processing was measured in dermal microvessel endothelial cell lysates as described in Ellerby et al., supra, 1997. Briefly, aliquots of cell lysates (1 μl lysate, 8-15 mg/ml) were added to 100 μM N-acetyl-Asp-Glu-Val-Asp-pNA (DEVD-pNA; BioMol; 100 μl, 100 mM HEPES, 10% sucrose, 0.1% CHAPS, 1 mM DTT, pH 7.0). Hydrolysis of DEVD-PNA was monitored spectrophotometrically (400 nm) at 25° C.

[9] = system: normal human dermal microvessel endothelial cells (DMECs); format: cell-based; design: dose or concentration left out as unconfirmed; details: proliferation or cord formation
[10] = system: tumor; assay: Competition of GSL phage homing by free peptide; design: species or system mice; details: mouse, in vivo
From the text: A third motif, GSL (glycine-serine-leucine), also was identified following in vivo panning in mice bearing breast carcinoma, malignant melanoma or Kaposi's sarcoma. Homing of phage expressing the GSL peptide, CGSLVRC (SEQ ID NO: 5), was inhibited by coadministration of the free CGSLVRC (SEQ ID NO: 5) peptide. Like the RGD and NGR peptides, phage expressing GSL peptides also bound to blood vessels of tumors. In view of the identification of the conserved RGD, NGR and GSL motifs present in tumor homing peptides, as disclosed herein, it will be recognized that peptides containing such motifs can be useful as tumor homing peptides and, in particular, for forming homing pro-apoptotic conjugates that can selectively deliver an […] peptide to a tumor.

[11] = 250 μg/week/mouse intravenously

Compound	morphological indicators of apoptosis (nuclear condensation and fragmentation) ([1]; 72 hours)	cells with altered mitochondrial morphology ([1]; proliferating cells, before the cells rounded-up)	toxicity to MDA-MB-435 cells relative to KS1767 cells and angiogenic DMECs [2]	CC50 ([2]; proliferating MDA-MB-435 cells, read-out: LC50 MDA-MB-435 Prolif.) [µM]	LC50 for proliferating or migrating DMECs relative to LC50 for angiostatic DMECs ([3]; angiogenic versus angiostatic conditions)	CC50 ([3]; cord formation, read-out: LC50 DMEC Angiogenic Cord Form) [µM]	CC50 ([3]; proliferation with VEGF, read-out: LC50 DMEC Angiogenic Prolif.) [µM]	CC50 at 72 h [4] [µM]	effect against C8161 melanoma tumors [5]	CC50 [6] [µM]	histopathological analysis of tumors [7, 11]	survival versus control groups [7, 11]	tumor volume versus controls [7, 11]	apoptotic cell death in tumors ([7]; histopathological analysis)	apoptotic cell death by caspase activity [8]	percent viability with time relative to untreated controls [9]	effect of coadministered free peptide on homing of CGSLVRC phage [10]
CC(C)C[C@@H](NC(=O)[C@@H](CCCCN)NC(=O)CNC(=O)CNC(=O)[C@@H]1CSSC[C@H](N)C(=O)N[C@@H](CC(N)=O)C(=O)NCC(=O)N[C@@H](CCCNC(=N)N)C(=O)N1)C(=O)N[C@H](C)C(=O)N[C@H](CCCCN)C(=O)N[C@H](CC(C)C)C(=O)N[C@H](C)C(=O)N[C@H](CCCCN)C(=O)N[C@H](CCCCN)C(=O)N[C@H](CC(C)C)C(=O)N[C@H](C)C(=O)N[C@H](CCCCN)C(=O)N[C@H](CC(C)C)C(=O)N[C@H](C)C(=O)N[C@H](CCCCN)C(=O)O [HPP-1, CNGRC-GG-D(KLAKLAK)2] (H-CNGRCGG[dK][dL][dA][dK][dL][dA][dK][dK][dL][dA][dK][dL][dA][dK]-OH; disulfide 1-5)	exhibited the classic morphological indicators of apoptosis	approximately 80%	less toxic to MDA-MB-435 human breast carcinoma cells by approximately one order of magnitude	415	an order of magnitude lower	34	51	481	effective	42	pronounced destruction of tumor architecture and widespread cell death	survival was longer	smaller, on average by one order of magnitude	about 50%	Apoptotic cell death was confirmed	decrease in percent viability with time	
CGSLVRC [GSL tumor homing peptide]																	inhibited
